{"source": "patent US9604932B2", "about": "(priority 2013, dated 2017)", "key": {"[1]": {"test_system": "mice exposed to a lethal dose of E. coli lipopolysaccharide (LPS)", "experiment": "Murine model of sepsis (lethal dose of E. coli LPS)", "assay_type": "in vivo, Balb/c mice", "conditions": "protocol only; 0, 20, 40, or 80 mg/kg/day BID IP", "experimental": "In this study, Balb/c mice exposed to a lethal dose of E. coli lipopolysaccharide (LPS; 10 mg/kg IP) are treated with R-107 (0, 20, 40, or 80 mg/kg/day, BID IP), with the initial dose given 1 hour after LPS injection, and the mortality for the animal treated with LPS only (the control group) vs. that for the animals treated with the various doses of R-107 is compared.\nIn a satellite study, tissues and sera are collected at 16 hours, i.e., 15 hours after the first administration and 3 hours after the second administration of R-107, for analysis, and the level of creatinine, aspartate transminase (AST), alanine transaminase (ALT), bilirubin, amylase, lipase, and alkaline phosphatase (ALP), associated with kidney, pancreas, and liver functioning are measured."}, "[2]": {"test_system": "limb ischemia reperfusion injury (LIRI)", "experiment": "Minipig model of limb ischemia-reperfusion injury", "assay_type": "in vivo, minipigs", "conditions": "protocol only; 10, 30, 80 mg/kg/day TID", "experimental": "In this study, the efficacy of R-107 in a limb ischemia reperfusion injury (LIRI) is tested. In a large animal model of acute LIRI (n=6 minipigs per group) induced by an endovascular balloon occlusion of the femoral artery for 6 hours, parenteral R-107 (0, 10, 30, 80 mg/kg/day TID) is initiated 10 minutes before reperfusion via direct arterial infusion, followed by an IV infusion thereafter. At 7, 14, and 21 days after reperfusion, limb perfusion (by Doppler flow) is correlated with nerve conduction velocity (NCV, per electromyography, EMG), and muscle strength (by foot pressure on a walking surface) with simultaneous plasma concentrations of R-107."}, "[3]": {"test_system": "peripheral hypertension (HTN)", "experiment": "Minipig model of peripheral hypertension", "assay_type": "in vivo, minipigs", "conditions": "protocol only; enterically-coated oral capsule", "experimental": "In order to test the efficacy of R-107 in peripheral hypertension (HTN), a series of 3 hemodynamic studies is carried out in conscious, instrumented, ambulatory, and telemetered minipigs (n=5) with HTN secondary to an endovascular-created, unilateral, renovascular stenosis. Minipigs are treated with R-107 administered as an enterically-coated oral capsule.\nIn Series A, the pharmacokinetic profile and hemodynamic effect of a single administration of R-107 (3, 10, 20, 30 mg/kg) is correlated with a one-week washout period between successive dose levels. Animals are monitored for 24 hours to collect continuous hemodynamic data and intermittent plasma concentrations of R-107 and its metabolites (0, 0.25, 0.5, 0.75, 1, 2, 4, 6, 8, 12, 16, 20, and 24 hours). In Series B, the most promising 2 doses of R-107 from Series A are evaluated by carrying out a repeat-dose study of R-107 administered every 6 hours (q6h) for a period of 3 days. The hemodynamic effects of R-107 are correlated with plasma peak and trough concentrations of R-107 and its metabolites obtained q6h. In Series C, the emergence of tachyphylaxis to R-107 in a 2 week repeat-dose study (q6h) is evaluated utilizing the optimal dose determined in Series B, wherein hemodynamics are correlated with plasma pharmacokinetic determinations as in Series B."}, "[4]": {"test_system": "renal ischemia-reperfusion injury", "experiment": "Rat model of renal ischemia-reperfusion injury", "assay_type": "in vivo, Sprague-Dawley rats", "conditions": "protocol only; 80 mg/kg IV infusion"}, "[5]": {"experiment": "Incubation of R-107 in rat plasma, relative concentrations by HPLC", "assay_type": "in vitro ADME", "conditions": "R-107 4 mM in rat plasma, 37° C.", "experimental": "In an in vitro study, 2,2,5,5-tetramethyl-3-(nitrooxymethyl)pyrrolidin-1-yl acetate (R-107) was incubated in mouse or rat plasma at 37° C. at a concentration of 4 mM, and the relative concentrations of this compound as well as of its corresponding hydroxylamine, (1-hydroxy-2,2,5,5-tetramethylpyrrolidin-3-yl) methyl nitrate (R-105), and 3-nitratomethyl-2,2,5,5-tetramethylpyrrolidinyloxy (R-100), were measured by HPLC."}, "[6]": {"test_system": "erectile dysfunction (ED)", "experiment": "Rat model of erectile dysfunction", "assay_type": "in vivo, Sprague-Dawley rats", "conditions": "protocol only; 80 mg/kg/day BID IV"}, "[7]": {"test_system": "acute retinal ischemia-reperfusion injury", "experiment": "Porcine model of acute retinal ischemia-reperfusion injury", "assay_type": "in vivo", "conditions": "protocol only; 10, 30, 80 mg/kg/day IV BID", "experimental": "In this study, a porcine model of acute retinal ischemia-reperfusion injury (n=6 per group) is induced by equilibration with an elevated saline reservoir to create a static IOP of 90 mmHg for 90 min. Task #1: Microvascular responsiveness: A dose-response of parenteral R-107 (0, 10, 30, 80 mg/kg/day IV BID) is initiated 10 minutes before reperfusion. 1 hour after reperfusion, retinal microvessels are harvested and cannulated for ex vivo analysis of vascular responsiveness to endothelium dependent and independent vasodilators. Task #2: Retinal function and morphology: R-107 is given 10 minutes before reperfusion (at a dose determined by Task #1) and its efficacy judged by electroretinogram (1, 2, 7 days post-reperfusion) and retinal histology, ultrastructure, and drug concentration (Day 7)."}, "[8]": {"experiment": "Conversion of prodrug upon exposure to plasma, biological solutions and tissues", "assay_type": "in vitro ADME", "conditions": "stable oil until exposure to plasma"}}, "data": [{"compound": "CC(=O)ON1C(C)(C)CC(CO[N+](=O)[O-])C1(C)C", "note": "(stereo not shown) [R-107, 2,2,5,5-tetramethyl-3-(nitrooxymethyl)pyrrolidin-1-yl acetate]", "values": [{"measurement": "Efficacy in murine model of sepsis", "setting": "[1]", "value": "Effective"}, {"measurement": "Efficacy in minipig model of limb ischemia-reperfusion injury", "setting": "[2]", "value": "Effective"}, {"measurement": "Efficacy in minipig model of peripheral hypertension", "setting": "[3]", "value": "Effective"}, {"measurement": "Efficacy in rat model of renal ischemia-reperfusion injury", "setting": "[4]", "value": "Effective"}, {"measurement": "Relative concentration of R-107", "setting": "[5]; 0.1 hrs", "value": 246}, {"measurement": "Relative concentration of R-107", "setting": "[5]; 1.5 hrs", "value": 18}, {"measurement": "Relative concentration of R-107", "setting": "[5]; 20 hrs", "value": 0}, {"measurement": "Efficacy in rat model of erectile dysfunction", "setting": "[6]", "value": "Effective"}, {"measurement": "Efficacy in porcine model of acute retinal ischemia-reperfusion injury", "setting": "[7]", "value": "Effective"}, {"measurement": "Stability / conversion upon exposure to plasma", "setting": "[8]", "value": "readily converted to its corresponding 1-pyrrolidinyloxy derivative R-100"}]}]}
